Reference: patent US8153784B2, “Imaging of enzyme activity” (The General Hospital Corporation, priority 2004, dated 2012)

What was measured:
[1] = target: T1, horseradish peroxidase (HRP) (Armoracia rusticana, UniProt P00433); assay: Pseudo-first-order rate constants of HRP-mediated conversion (relaxation times over time, 0.47 T); type: biochemical, horseradish; set-up: purchased Sigma-Aldrich type XII (catalogue number not given)
T1 sequence (P00433 31-338): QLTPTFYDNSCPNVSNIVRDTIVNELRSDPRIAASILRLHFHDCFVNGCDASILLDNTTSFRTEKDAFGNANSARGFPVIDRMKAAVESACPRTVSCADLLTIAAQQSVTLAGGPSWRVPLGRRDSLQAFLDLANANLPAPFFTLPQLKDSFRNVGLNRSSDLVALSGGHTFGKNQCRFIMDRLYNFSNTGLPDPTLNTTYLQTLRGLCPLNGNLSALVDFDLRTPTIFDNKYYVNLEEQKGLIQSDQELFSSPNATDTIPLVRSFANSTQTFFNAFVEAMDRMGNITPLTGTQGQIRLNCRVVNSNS
Description: Kinetics of the samples were observed by measuring T1 and T2 at 0.47 T and 40° C. of the samples over at least a 24 hour period. At different time points, 1 M of sodium azide (final concentration=0.17 M) was added to stop the enzyme mediated reaction. The resultant progress curve was fitted with an empirical mathematical model and analyzed according to the Guggenheim method to obtain the pseudo-first-order rate constants (Guggenheim E A. Philos. Mag. 1926; 2:538).
An important property of a suitable substrate for an enzyme is the kinetics of enzymatic reaction. To determine the utility of the paramagnetic complexes as suitable substrates for human myeloperoxidase (MPO), we measured the pseudo-first-order rate constant of these substrates in MPO, and compared to the same substrates' reactions in Horse Radish Peroxidase (HRP) by monitoring the changes in relaxation time over time. […] The results shown were obtained using T1 measurements. T2 measurements yielded nearly identical results. The results are presented as mean±SD. N/A=not applicable.

Myeloperoxidase (MPO) = target: T2, Myeloperoxidase (MPO) (Homo sapiens, UniProt P05164); assay: MPO-mediated oligomerization of 2Gd^3+: UV, HPLC, MALDI-MS, relaxivity; type: biochemical; conditions: for degree of polymerization (N) of oligomerized products: MPO/H2O2, MALDI-MS
T2 construct: purchased Biodesign Int
T2 sequence (P05164 49-745): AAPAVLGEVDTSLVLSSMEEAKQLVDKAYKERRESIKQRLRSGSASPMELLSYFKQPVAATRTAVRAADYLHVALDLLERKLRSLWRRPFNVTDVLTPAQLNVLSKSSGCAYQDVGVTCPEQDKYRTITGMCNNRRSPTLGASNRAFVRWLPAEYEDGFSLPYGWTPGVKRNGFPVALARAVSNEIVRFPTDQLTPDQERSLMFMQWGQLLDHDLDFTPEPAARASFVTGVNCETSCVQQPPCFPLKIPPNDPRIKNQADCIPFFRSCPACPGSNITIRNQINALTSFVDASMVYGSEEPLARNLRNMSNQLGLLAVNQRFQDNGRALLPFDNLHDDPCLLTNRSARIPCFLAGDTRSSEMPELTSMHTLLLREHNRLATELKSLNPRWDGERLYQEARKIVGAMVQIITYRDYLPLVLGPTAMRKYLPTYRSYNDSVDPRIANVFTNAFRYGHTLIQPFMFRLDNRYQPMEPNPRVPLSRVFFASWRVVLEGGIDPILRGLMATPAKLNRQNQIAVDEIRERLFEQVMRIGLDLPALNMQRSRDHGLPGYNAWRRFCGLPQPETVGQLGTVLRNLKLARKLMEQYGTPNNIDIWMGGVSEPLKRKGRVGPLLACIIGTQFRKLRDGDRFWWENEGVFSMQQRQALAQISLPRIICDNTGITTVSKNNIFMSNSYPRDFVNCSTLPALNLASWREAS
Description: Myeloperoxidase was purchased from Biodesign Int. and was used as received, activity was measured as described by Klebanoff, S. J.; Waltersdorph, A. M.; Rosen, H.; Methods in Enzymology. Vol. 105, p 399-403.
We incubated 0.6 mL of a solution 10^4M of Gd^3+2 at pH=7.2/25° with 4 units of MPO and an excess of H2O2 for 90 minutes. […] The intensity of these new bands increased for a period of about 90 min, and that 90% of the change could be observed within first 30 min. The reaction was quenched by freezing the mixture in liquid N2. […] However, higher N value species were undetectable.
Four solutions with concentrations ranging from 10^−4 to 10^−3 where separately incubated as above and the T1 value were measured at 0.47T using standard inverse recovery sequence. The fitting of these values, following published procedures, yielded a r1=5.9 mM^−1s^−1. […] For longer incubation times, no linear correlation of T1 from Gd concentration could be obtained due to the precipitation of CA at millimolar concentrations. Lower relaxivity increase (32%) was observed when the activity of the enzyme was lowered to 1 unit.
Further characterization of r1 effects modulated by MPO was accomplished by using a 4×2 well plate array of samples prepared as shown in FIG. 14: Row 1 contained 0.3 mL Gd-DTPA-diSer solutions at pH 7.2; Row 2 included the samples the same concentrations and 4 units of MPO and 2 μL of a 3% of aqueous H2O2. Fitting the T1 values of the wells in row 1 afforded r1 of 4.7 mM^−1s^−1. […] In this case, we observed precipitation of insoluble products during the MRI scan. The fitting of the values measured in other 3 wells, the relaxivity was 5.5 mM^−1s^−1.
Indium-111 labeled bis-5-HT-DTPA was prepared by using transchelation from ^111In-oxiquinoline complex (oxine, Cardinal Health, Cleveland Ohio). To prepare ^111In-bis-5-HT-DTPA, 50 μg of bis-5-HT-DTPA (1 mg/ml) were mixed with 1 mCi ^111In-oxiquinoline solution in 0.7-1.0 ml saline and incubated for 1 hour under argon. Transchelation and purity was controlled by HPLC (Discovery C-18 column, 25×3 mm, Supelco) using 0-55% gradient of acetonitrile in water. Human myeloperoxidase was obtained from BioDesign, Inc., and its activity determined by using the method described by Klebanoff. To determine if the Gd compounds were substrates for human MPO, MPO-mediated oligomerization was monitored by size exclusion HPLC and by measuring ΔT1 on a Bruker Minispec 120 NMR spectrometer using a standard inversion recovery sequence. The degree of oligomerization was determined by mass spectroscopy (MALDI-MS).

Row | SMILES | fraction of the final relaxation rate obtained within the first 5 minutes [1] | Pseudo first-order rate constant ([1]; from T1 measurements, mean±SD) [s⁻¹] | increase of r1 compared with the initial substrate (Myeloperoxidase (MPO); 0.47T, 4 units of MPO) [%] | r1 (Myeloperoxidase (MPO); 0.47T, 4 units of MPO, H2O2) [mM⁻¹ s⁻¹] | relaxivity increase (Myeloperoxidase (MPO); 0.47T, enzyme activity lowered to 1 unit) [%] | fraction of the UV absorbance change observed within first 30 min (Myeloperoxidase (MPO); 10^4M, pH=7.2/25°, 4 units of MPO, excess H2O2) [%] | conversion (Myeloperoxidase (MPO); HPLC after addition of MPO) [%] | degree of polymerization (N) of oligomerized products (Myeloperoxidase (MPO); listed as Gd^3+2) | degree of polymerization (N) of oligomerized products (Myeloperoxidase (MPO); listed as bis-5-HT-DTPA(Gd)) | relaxivity (Myeloperoxidase (MPO); well plate at 1.5T, 4 units of MPO and H2O2, fitting of 3 wells) [mM⁻¹ s⁻¹] | minimum increase of relaxivity (Myeloperoxidase (MPO); well plate at 1.5T, range 10^−4 to 5 10^−4) [%]
1 | CC(C(=O)NCC(=O)NCCc1c[nH]c2ccc(O)cc12)N1CCN(CC(=O)[O-])CCN(CC(=O)[O-])CCN(CC(=O)[O-])CC1.[Gd+3] (centres unmarked) [5-HT-DOTA(Gd), Glycylmethyl DOTA(Gd) 5-Hydroxytryptamide] | more than 80% | 0.01 | – | – | – | – | – | – | – | – | –
2 | O=C([O-])CN(CCN(CC(=O)[O-])CC(=O)NCCc1c[nH]c2ccc(O)cc12)CCN(CC(=O)[O-])CC(=O)NCCc1c[nH]c2ccc(O)cc12.[Gd+3] [2Gd^3+] | – | – | 37 | 5.9 | 32 | 90 | 99.5 | 1-4 | up to 5 | 5.5 | ≥ 17
